The results in this text go back to patent publication US9975884B2, “Kojic acid-derived mannich bases with biological effect” (priority 2015, dated 2018).

One data set deals with collagenase. As to the kind of experiment: Collagenase enzyme inhibition. It is filed as biochemical. The procedure:
Physical properties of the compounds such as efficiency of synthesis reactions and melting points are determined. […] Antidermatophytic activity of the compounds against Trichophyton mentagrophytes var. erinacei, Epidermophyton floccosum and Microsporum gypseum as well as their antimycobacterial activity against Mycobacterium tuberculosis H37Rv (ATCC 27294) and M. avium (ATCC 15769) are analyzed under non-toxic concentrations using MRC-5 and He-La cell lines. Antityrosinase activity thereof is determined by spectrophotometric method using L-DOPA as a substrate. Antioxidant activity is determined by the methods of 2,2-diphenyl-1-picrilhydrasil (DPPH), N,N-dimethyl-p-phenylenediamine (DMPD) radical scavenging activity, metal chelation effect, iron-(FRAP), phosphomolybdenum-(PRAP) reducing antioxidant power. Elastase and collagenase enzyme inhibitions are performed to determine anti-aging activity. Due to their antityrosinase, antioxidant, anti-aging, antidermatophytic and antimycobacterial effects, the compounds may be used in medicine, cosmeceutical, food and textile industry.

In the next data set the test system is M. avium (ATCC 15769). As to the kind of experiment: Antimycobacterial activity. The settings on record: for MIC: Mycobacterium avium. It is filed as cell-based, Mycobacterium avium.
Another data set relates to elastase. The data set is described as follows: Elastase enzyme inhibition. It is filed as biochemical.
Data set [1] can be described thus: DPPH free radical scavenging effect. The conditions noted are these: 1000 μg/ml.
The nature of another data set: Solubility in solvents. It is filed as physicochemical. The procedure: Melting point: 180-1<*>C, Yield: 90%. White powder crystals. Insoluble in water, low-solubility in methanol, ethanol and acetone, and soluble in chloroform.
Melting point 196-7° C., Yield: 93%. White powder crystals. Insoluble in water, methanol, ethanol and acetone, but soluble in chloroform.

A short description of data set [2]: Iron reduction antioxidant power (FRAP). The conditions noted are these: 1000 μg/ml.
Data set [3] is described as follows: Phosphomolybdenum reduction antioxidant power (PRAP). The conditions noted are these: for Phosphomolybdenum Reduction Antioxidant Power (Absorbance at 600 nm ± S.S): 1000 μg/ml.
Another data set in a line: Metal chelation effect. The settings on record: for iron chelation effect: dose amount of 1000 μg/ml.
The nature of data set [4]: DMPD radical scavenging effect. The settings on record: 1000 μg/ml.
Another data set concerns tyrosinase. Format: biochemical.
Where [5] appears, read: ATCC15769, value column 8 of the table, read-out: MIC against M. avium.

Values after ≈ are worked out from the molar mass of the structure shown. Like-named read-outs stand apart in the source and are kept apart here.

In the case of “3-Hydmxy-6-(hydmxymethyl)-2-[{4-(2,6 diclorobenzyl)piperazme-1-il]methyl-4H-pyran-4-one [Compound of Formula 2]”, in the data set with collagenase (1000 μg/ml-Stock), the “Collagenase Enzyme Inhibition (Inhibition % ± S.S)” value worked out at 12.40 ± 4.57%. Further, the “MIC against M. avium” value in the data set on M. avium (ATCC 15769) was 2 µg/mL. The elastase enzyme inhibition result with elastase is given as “No elastase enzyme inhibition is detected”. Also, the “DPPH Free Radical Scavenging Effect (Scavenging % ± S.S)” value in [1] is given as 12.20 ± 1.72%. Also, in the data set “Solubility in solvents”, the solubility in chloroform entry is “soluble”; the “solubility in methanol, ethanol and acetone” value is given as “Insoluble”; the solubility in water result is on record as “Insoluble”. Further, the “Iron Reduction Antioxidant Power (Absorbance at 700 nm ± S.S)” value (“Iron Reduction Antioxidant Power” below) in [2] is recorded as 0.217 ± 0.002. Moreover, in data set [3], the “antioxidant power of phosphomolybdenum structure” value is 0.187 ± 0.017 µg/mL and the “Phosphomolybdenum Reduction Antioxidant Power (Absorbance at 600 nm ± S.S)” value is listed as 0.187 ± 0.017. In addition, the “Metal Chelation Effect (Chelation % ± S.S)” value in the data set “Metal chelation effect” (1000 μg/ml) was determined as 58.17 ± 0.99%. In the data set “Metal chelation effect”, the “iron chelation effect” value is recorded as 58.17±0.99%. For the same compound, the “DMPD Radical Scavenging Effect (Scavenging % ± S.S)” value in data set [4] is 24.94 ± 1.64%.
With `O=c1cc(CO)occ1O` [Kojic Acid, Kojic acid], the “Collagenase Enzyme Inhibition (Inhibition % ± S.S)” value in the data set on collagenase (1000 μg/ml-Stock) is listed as 15.18 ± 5.92%. For the same compound, the MIC with M. avium (ATCC 15769) (ATCC15769, read-out: MIC against M. avium) was 16 µg/mL (≈ 113 µM). The elastase enzyme inhibition entry in the data set with elastase is listed as “No elastase enzyme inhibition is detected”. Besides, in data set [1], the “DPPH Free Radical Scavenging Effect (Scavenging % ± S.S)” value was found to be 22.51 ± 2.65%. Moreover, in data set [2], the “Iron Reduction Antioxidant Power” value worked out at 0.757 ± 0.026. Further, the “antioxidant power of phosphomolybdenum structure” value in [3] worked out at 0.103 ± 0.006 µg/mL. Further, the “Phosphomolybdenum Reduction Antioxidant Power (Absorbance at 600 nm ± S.S)” value in data set [3] worked out at 0.103 ± 0.006. In addition, in “Metal chelation effect” (1000 μg/ml), the “Metal Chelation Effect (Chelation % ± S.S)” value is 8.89 ± 0.75%. For the same compound, the “DMPD Radical Scavenging Effect (Scavenging % ± S.S)” value in [4] amounted to 41.86 ± 1.10%. Moreover, the Low-dose antityrosinase activity with tyrosinase (0.025 mg/ml) was found to be 18.65 ± 1.33; in the data set with tyrosinase (0.05 mg/ml) it was 44.74 ± 0.53; in the data set with tyrosinase (0.1 mg/ml) it was 61.28 ± 2.03; with tyrosinase (0.25 mg/ml), 77.44 ± 0.68.
Regarding `O=C(O)CN(CCN(CC(=O)O)CC(=O)O)CC(=O)O` [EDTA, ethylenediaminetetraacetic acid], in “Metal chelation effect” (2000 μg/ml), the “Metal Chelation Effect (Chelation % ± S.S)” value was 97.66±0.12%.
Consider `NNC(=O)c1ccncc1` [Isoniazide], for which the MIC with M. avium (ATCC 15769) (setting [5]) turned out to be 0.125 µg/mL (≈ 0.911 µM).
Turning to `O=C(O[C@@H]1Cc2c(O)cc(O)cc2O[C@@H]1c1cc(O)c(O)c(O)c1)c1cc(O)c(O)c(O)c1` [EGCG, epigallocatechin gallate], the “Collagenase Enzyme Inhibition (Inhibition % ± S.S)” value with collagenase (15 mM) amounted to 44.64 ± 2.87%.
On to `O=c1c(O)c(-c2ccc(O)c(O)c2)oc2cc(O)cc(O)c12` [Quercetin, quercetin], for which, in data set [1], the “DPPH Free Radical Scavenging Effect (Scavenging % ± S.S)” value stood at 91.14 ± 0.65%. The “Iron Reduction Antioxidant Power” value in data set [2] came out at 2.015 ± 0.032. Moreover, the “Phosphomolybdenum Reduction Antioxidant Power (Absorbance at 600 nm ± S.S)” value in [3] is listed as 0.320 ± 0.005.
With `O=C1O[C@H]([C@@H](O)CO)C(O)=C1O` [Ascorbic acid], in [4], the “DMPD Radical Scavenging Effect (Scavenging % ± S.S)” value came to 69.58 ± 0.71%.
As to `O=c1cc(CO)oc(CN2CCN(Cc3ccc(Cl)c(Cl)c3)CC2)c1O` [Compound of Formula 1], the melting point was in the range of 180 to 181 °C. Also, in the data set with collagenase (1000 μg/ml-Stock), the “Collagenase Enzyme Inhibition (Inhibition % ± S.S)” value stood at 15.57 ± 2.24%. Also, the MIC in the data set with M. avium (ATCC 15769) (setting [5]) turned out to be 2 µg/mL. Besides, in the data set on elastase, the elastase enzyme inhibition result is listed as “No elastase enzyme inhibition is detected”. The “DPPH Free Radical Scavenging Effect (Scavenging % ± S.S)” value in data set [1] is reported as 14.59 ± 2.52%. In addition, in the data set “Solubility in solvents”, the solubility in chloroform result was “soluble”; the “solubility in methanol, ethanol and acetone” value is reported as “low-solubility”; the solubility in water result is “Insoluble”. In addition, the “Iron Reduction Antioxidant Power” value in data set [2] worked out at 0.274 ± 0.003. In [3], the “antioxidant power of phosphomolybdenum structure” value was 0.154 ± 0.004 µg/mL and the “Phosphomolybdenum Reduction Antioxidant Power (Absorbance at 600 nm ± S.S)” value came out at 0.154 ± 0.004. For the same compound, the “Metal Chelation Effect (Chelation % ± S.S)” value in “Metal chelation effect” (1000 μg/ml) stood at 67.57 ± 1.30%. Moreover, in the data set “Metal chelation effect”, the “iron chelation effect” value is listed as 67.57±1.30%. Moreover, the “DMPD Radical Scavenging Effect (Scavenging % ± S.S)” value in data set [4] is given as 36.05 ± 3.11%. For the same compound, the “IC50 (tyrosinase)” value against tyrosinase came out at 11 ± 1 µg/mL. The same compound came in with a Low-dose antityrosinase activity with tyrosinase (0.0025 mg/ml) of 23.63 ± 1.65. The same compound registered a Low-dose antityrosinase activity with tyrosinase (0.005 mg/ml) of 37.81 ± 0.54. Also, the Low-dose antityrosinase activity in the data set on tyrosinase (0.01 mg/ml) stood at 51.25 ± 1.09. The compound further returned a Low-dose antityrosinase activity with tyrosinase (0.025 mg/ml) of 56.79 ± 0.44. Also, the Low-dose antityrosinase activity in the data set with tyrosinase (0.05 mg/ml) is 70.62 ± 1.62. The compound further showed a Low-dose antityrosinase activity in the data set on tyrosinase (0.1 mg/ml) of 73.57 ± 4.81. The compound further had a Low-dose antityrosinase activity in the data set with tyrosinase (0.25 mg/ml) of 80.63 ± 2.01. Besides, in the data set on tyrosinase (relative to kojic acid), the “antityrosinase effect, times higher than kojic acid” value was 6 times.

In general, MIC refers to the smallest concentration in the dilution series that meets the test's criterion for growth inhibition. By melting point is commonly meant the temperature, or range, at which the solid turns liquid.
